Data taken from patent US11071730B2, “Substituted 6-azabenzimidazole compounds” (Gilead Sciences, Inc., priority 2018, dated 2021).

The compounds below were run against human HPK1 (MAP4K1) (Homo sapiens (Human), UniProt Q92918) (assay: HPK1 IC50 Assay (TR-FRET biochemical kinase assay, STK S1 peptide substrate)). Conditions: recombinant human HPK1 kinase domain 0.15 nM, 10 μM ATP, 1 μM STK S1 peptide; geometric mean.
Chain of human HPK1 (MAP4K1) (Q92918 17-274): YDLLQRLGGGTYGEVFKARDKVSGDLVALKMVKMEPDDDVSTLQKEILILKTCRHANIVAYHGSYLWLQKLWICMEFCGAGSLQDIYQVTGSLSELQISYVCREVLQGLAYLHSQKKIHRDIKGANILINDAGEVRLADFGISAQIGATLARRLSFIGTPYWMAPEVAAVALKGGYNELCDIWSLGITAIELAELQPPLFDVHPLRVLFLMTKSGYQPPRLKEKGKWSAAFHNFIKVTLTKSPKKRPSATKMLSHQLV
Summary of the method: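 Pre-activated recombinant kinase domain (insect cells; 0.15 nM) pre-incubated with compounds for 15 min, then 10 μM ATP and 1 μM STK S1 peptide added for 3 h at 25 °C in BES pH 7.0. Phosphorylation read by HTRF (665/620 nm). IC50 from four-parameter fits normalized to staurosporine/DMSO controls, geometric mean of repeats.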
Work on `CC(C)n1cnc2cc(-c3ccc4c(c3)N([C@H]3C[C@@H](N5CC[C@@H](C)C5)C3)C(=O)C4(C)C)nc(Nc3ccncc3F)c21` [Example 192] yielded an IC50 of 1.1 nM.
`CC(C)n1cnc2cc(-c3ccc4c(c3)N([C@H]3C[C@@H](N5CCCCC5)C3)C(=O)C43CCN(C(=O)C4(C#N)CC4)CC3)nc(Nc3ccncc3F)c21` [Example 142] showed an IC50 of 0.3 nM.
`CCn1cnc2cc(-c3ccc4c(c3)N([C@H]3C[C@@H](N5CCCCC5)C3)C(=O)C43CCN(C(=O)C45CC(F)(C4)C5)CC3)nc(Nc3ccncc3F)c21` [Example 151] showed an IC50 of 0.3 nM.
With `CCn1cnc2cc(-c3ccc4c(c3)N([C@H]3C[C@@H](N5CCCCC5)C3)C(=O)C43CCN(C(=O)C(C)C)CC3)nc(Nc3ccncc3F)c21` [Example 148] the IC50 was 1.3 nM.
`CC(C)n1cnc2cc(-c3ccc4c(c3)N([C@H]3C[C@@H](N5CCC(C)(C)C5)C3)C(=O)C43CCN(C(=O)C(C)(C)CO)CC3)nc(Nc3ccc(F)nc3F)c21` [Example 164] showed an IC50 of 0.08 nM.
`CC(C)n1cnc2cc(-c3ccc4c(c3)N([C@H]3C[C@@H](N5CCC(C)(C)C5)C3)C(=O)C43CCN(C(=O)c4cnnn4C)CC3)nc(Nc3ccncc3F)c21` [Example 161] showed an IC50 of 0.4 nM.
`CC(=O)N1CCC2(CC1)C(=O)N([C@H]1C[C@@H](N3CCC(C)(C)C3)C1)c1cc(-c3cc4ncn(C(C)C)c4c(Nc4cc(C)ncc4F)n3)ccc12` [Example 173] was tested, and the IC50 was 0.4 nM.
Work on `CC(=O)N1CCC2(CC1)C(=O)N([C@H]1C[C@@H](N3CCC4CC4C3)C1)c1cc(-c3cc4ncn(C(C)C)c4c(Nc4ccncc4F)n3)ccc12` (some centres unmarked) [Example 183] yielded an IC50 of 0.4 nM.
Compound `Cc1cc(Nc2nc(-c3ccc4c(c3)N([C@H]3C[C@@H](N5CCCCC5)C3)C(=O)C43CCN(C(=O)C4(C)COC4)CC3)cc3ncn(C(C)C)c23)c(F)cn1` [Example 129] has an IC50 of 0.6 nM.
Compound `CC[C@@H](O)C(=O)N1CCC2(CC1)C(=O)N([C@H]1C[C@@H](N3CCC(C)(C)C3)C1)c1cc(-c3cc4ncn(C(C)C)c4c(Nc4ccncc4F)n3)ccc12` [Example 117] has an IC50 of 0.2 nM.
With `CC(C)n1cnc2cc(-c3ccc4c(c3)N([C@H]3C[C@@H](N5CCCCC5)C3)C(=O)C43CCN(C(=O)C(C)(C)C)CC3)nc(Nc3ccncc3F)c21` [Example 170] the IC50 was 0.3 nM.
Work on `CC(=O)N1CCC2(CC1)C(=O)N([C@H]1C[C@@H](N3CCCCC3)C1)c1cc(-c3cc4ncn(C(C)C)c4c(Nc4cc(CO)ncc4F)n3)ccc12` [Example 98] yielded an IC50 of 1 nM.
`CC(C)n1cnc2cc(-c3ccc4c(c3)N([C@H]3C[C@@H](N5CCC(C)(C)C5)C3)C(=O)C4(C)C)nc(Nc3ccncc3F)c21` [Example 189] showed an IC50 of 0.6 nM.
`CC(=O)N1CCC2(CC1)C(=O)N([C@H]1C[C@@H](N3CCCCC3)C1)c1cc(-c3cc4ncn(C(C)C)c4c(Nc4cc(N(C)C)ncc4F)n3)ccc12` [Example 99] was tested, and the IC50 was 1.6 nM.
`COCC(C)(C)C(=O)N1CCC2(CC1)C(=O)N([C@H]1C[C@@H](N3CCCCC3)C1)c1cc(-c3cc4ncn(C(C)C)c4c(Nc4ccncc4F)n3)ccc12` [Example 140] showed an IC50 of 0.3 nM.

Same assay, conditions: recombinant human HPK1 kinase domain 0.15 nM, 10 μM ATP, 1 μM STK S1 peptide; geometric mean of multiple experiments
Compound `CC(C)n1cnc2cc(-c3ccc4c(c3)N([C@H]3C[C@@H](N5CC[C@@H](F)C5)C3)C(=O)C43CCN(C4COC4)CC3)nc(Nc3ccncc3F)c21` [Example 42] has an IC50 of 0.6 nM.
In the case of `CC(C)n1cnc2cc(-c3ccc4c(c3)N([C@H]3C[C@@H](N5CCCC(C)(C)C5)C3)C(=O)C4(C)C)nc(Nc3ccc(=O)[nH]c3)c21` [Example 82], the IC50 is reported as 0.1 nM.
`CC(C)n1cnc2cc(-c3ccc4c(c3)N([C@H]3C[C@@H](N5CCCCC5)C3)C(=O)C43CCN(C4COC4)CC3)nc(Nc3cc(F)ncc3F)c21` [Example 92] was tested, and the IC50 was 1.9 nM.
With `CC(C)n1cnc2cc(-c3ccc4c(c3)N([C@H]3C[C@@H](N5CCCC(C)(C)C5)C3)C(=O)C43CCN(C4COC4)CC3)nc(Nc3ccncc3F)c21` [Example 45] the IC50 was 0.2 nM.
In the case of `CC(C)n1cnc2cc(-c3ccc4c(c3)N([C@H]3C[C@@H](N5CCC(C)(C)C5)C3)C(=O)C43CCN(C(=O)C4CCCCO4)CC3)nc(Nc3ccncc3F)c21` (some centres unmarked) [Example 24], the IC50 is reported as 0.09 nM.
`CC(C)n1cnc2cc(-c3ccc4c(c3)N([C@H]3C[C@@H](N5CC(F)C6(CC6)C5)C3)C(=O)C43CCN(C4COC4)CC3)nc(Nc3ccncc3F)c21` (some centres unmarked) [Example 49] gave an IC50 of 0.5 nM.
`CC(C)n1cnc2cc(-c3ccc4c(c3)N([C@H]3C[C@@H](N5CCC(C)(C)C5)C3)C(=O)C43CCN(C(=O)C4COC4)CC3)nc(Nc3ccncc3F)c21` [Example 76] gave an IC50 of 0.5 nM.
For `CC(C)n1cnc2cc(-c3ccc4c(c3)N([C@H]3C[C@@H](N5CC[C@H](C)C5)C3)C(=O)C43CCN(C4COC4)CC3)nc(Nc3ccncc3F)c21` [Example 47], the IC50 was 1.6 nM.
In the case of `CC(C)CN[C@H]1C[C@@H](N2C(=O)C(C)(C)c3ccc(-c4cc5ncn(C(C)C)c5c(Nc5ccncc5F)n4)cc32)C1` [Example 84], the IC50 is reported as 1.7 nM.
`Cc1cc(Nc2nc(-c3ccc4c(c3)N([C@H]3C[C@@H](NCC(C)(C)O)C3)C(=O)C4(C)C)cc3ncn(C(C)C)c23)c(F)cn1` [Example 53] gave an IC50 of 2.1 nM.
`CC(C)n1cnc2cc(-c3ccc4c(c3)N([C@H]3C[C@@H](N5C[C@@H](C)[C@@H](C)C5)C3)C(=O)C43CCN(C(=O)[C@@H]4CCCO4)CC3)nc(Nc3ccncc3F)c21` [Example 9] showed an IC50 of 0.2 nM.
With `CC(C)n1cnc2cc(-c3ccc4c(c3)N([C@H]3C[C@@H](N5CCC[C@@H](F)C5)C3)C(=O)C43CCN(C4COC4)CC3)nc(Nc3ccncc3F)c21` [Example 79] the IC50 was 0.4 nM.
`[2H]C1([2H])N([C@H]2C[C@@H](N3C(=O)C(C)(C)c4ccc(-c5cc6ncn(C(C)C)c6c(Nc6ccncc6F)n5)cc43)C2)C([2H])([2H])C([2H])([2H])C([2H])([2H])C1([2H])[2H]` [Example 63] showed an IC50 of 0.3 nM.
With `CC(C)n1cnc2cc(-c3ccc4c(c3)N([C@H]3C[C@@H](N5CCCCC5)C3)C(=O)C4(C)C)nc(Nc3ccnc(F)c3F)c21` [Example 94] the IC50 was 0.3 nM.
Work on `CC(C)n1cnc2cc(-c3ccc4c(c3)N([C@H]3C[C@@H](N5CCC(C)(C)C5)C3)C(=O)C43CCN(C(=O)[C@H]4CCOC4)CC3)nc(Nc3ccncc3F)c21` [Example 16] yielded an IC50 of 0.3 nM.
Compound `CC(C)n1cnc2cc(-c3ccc4c(c3)N([C@H]3C[C@@H](N5CCC6(CC6)C5)C3)C(=O)C4(C)C)nc(Nc3ccncc3F)c21` [Example 56] has an IC50 of 0.8 nM.
`Cc1cc(Nc2nc(-c3ccc4c(c3)N([C@H]3C[C@@H](N5CCCCC5)C3)C(=O)C4(C)C)cc3ncn(C(C)C)c23)c(F)cn1` [Example 54] showed an IC50 of 1.5 nM.
Work on `CC(C)n1cnc2cc(-c3ccc4c(c3)N([C@H]3C[C@@H](N5CC(O)C(C)(C)C5)C3)C(=O)C43CCN(C4COC4)CC3)nc(Nc3ccncc3F)c21` (some centres unmarked) [Example 37, 6-(4-((3-fluoropyridin-4-yl)amino)-3-isopropyl-3H-imidazo[4,5-c]pyridin-6-yl)-1-((1s,3s)-3-(4-hydroxy-3,3-dimethylpyrrolidin-1-yl)cyclobutyl)-1′-(oxetan-3-yl)spiro[indoline-3,4′-piperidin]-2-one] yielded an IC50 of 0.2 nM.
`CC(=O)N1CCC2(CC1)C(=O)N([C@H]1C[C@@H](N3CC4CCC(C3)O4)C1)c1cc(-c3cc4ncn(C(C)C)c4c(Nc4ccncc4F)n3)ccc12` [Example 34] showed an IC50 of 0.2 nM.
`CC(C)n1cnc2cc(-c3ccc4c(c3)N([C@H]3C[C@@H](N5CCCCC5)C3)C(=O)[C@@]4(C)O)nc(Nc3ccncc3F)c21` [Example 55A, 6-(4-((3-fluoropyridin-4-yl)amino)-3-isopropyl-3H-imidazo[4,5-c]pyridin-6-yl)-3-hydroxy-3-methyl-1-((1s,3s)-3-(piperidin-1-yl)cyclobutyl)indolin-2-one] gave an IC50 of 1.2 nM.
